Laboratory results reported in publication PMC7594070, “N-Alkylated Iminosugar Based Ligands: Synthesis and Inhibition of Human Lysosomal β-Glucocerebrosidase” (Molecules, 2020).
Read-outs that look alike come from different tables or passages of the source.

What was measured:
GCase = details: cited from earlier work
[1] = target: T1, β-glucosidase/β-galactosidase from Agrobacterium sp. (Abg, GH1) (Agrobacterium sp., UniProt P12614); assay: Ki determination, Agrobacterium sp. β-glucosidase (Abg); assay type: biochemical; details: pH 7, substrate pNP β-Gal, room temperature; read-out: Ki Abg (GH1) β-Glc/Gal
T1 sequence (P12614 1-459): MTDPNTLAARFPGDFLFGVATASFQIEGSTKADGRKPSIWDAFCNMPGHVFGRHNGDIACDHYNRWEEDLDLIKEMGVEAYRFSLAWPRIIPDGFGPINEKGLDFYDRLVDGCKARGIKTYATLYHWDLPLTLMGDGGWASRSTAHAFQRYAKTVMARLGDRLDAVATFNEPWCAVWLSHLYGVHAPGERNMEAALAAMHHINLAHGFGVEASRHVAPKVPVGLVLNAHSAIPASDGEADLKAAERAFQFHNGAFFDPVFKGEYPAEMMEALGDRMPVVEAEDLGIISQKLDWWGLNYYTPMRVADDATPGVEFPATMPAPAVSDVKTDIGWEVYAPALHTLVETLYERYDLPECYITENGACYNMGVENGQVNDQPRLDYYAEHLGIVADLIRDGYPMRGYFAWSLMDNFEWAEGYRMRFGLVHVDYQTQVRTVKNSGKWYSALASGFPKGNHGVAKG
Protocol: (§1) Kinetic studies were performed at room temperature in an appropriate buffer for each enzyme (specific conditions can be found below). All the reactions were performed in half-area 96-well-plates (Corning, Corning, NY, USA) and monitored with a Synergy H1 plate reader (BioTek Instruments, Winooski, VT, USA). In each experiment, the appropriate concentration of the enzyme was incubated with different concentrations of the inhibitors for 2–5 min before initiating the reaction by the addition of substrate. The initial rate was then measured by monitoring the increase in absorbance as a result of the release of 4-nitrophenol at 405 nm for up to five minutes. Ki determinations were performed using two different substrate concentrations. For each substrate concentration, a range of three to six inhibitor concentrations was used. Dixon plots (1/v vs. [I]) were constructed to validate the use of competitive inhibition model and to assess the fit of the data. The data were then fit to a competitive inhibition model using non-linear regression analysis with Grafit 7.0.3 (Erithacus Software, East Grinstead, UK).
Agrobacterium sp. β-glucosidase (Abg): [64, 65] 50 mM sodium phosphate buffer (pH 7).

[2] = target: lac Z β-galactosidase from E. coli (GH2) (Escherichia coli, UniProt P00722); assay: Ki determination, E. coli lac Z β-galactosidase; assay type: biochemical; details: pH 7, substrate pNP β-Gal, room temperature
Protocol: as §1
E. coli lac z β-galactosidase: 50 mM sodium phosphate, 1.0 mM MgCl2 (pH 7). Substrate: pNP β-Gal, Km = 60 µM.

[3] = target: T2, Fabrazyme = commercial recombinant human lysosomal α-galactosidase (GH27) (Homo sapiens, UniProt P06280); assay: Ki determination, Fabrazyme (acid α-galactosidase); assay type: biochemical; details: pH 5.5, substrate 2,4-DNP α-Gal, room temperature
T2 construct: purchased Fabrazyme
T2 sequence (P06280 32-429): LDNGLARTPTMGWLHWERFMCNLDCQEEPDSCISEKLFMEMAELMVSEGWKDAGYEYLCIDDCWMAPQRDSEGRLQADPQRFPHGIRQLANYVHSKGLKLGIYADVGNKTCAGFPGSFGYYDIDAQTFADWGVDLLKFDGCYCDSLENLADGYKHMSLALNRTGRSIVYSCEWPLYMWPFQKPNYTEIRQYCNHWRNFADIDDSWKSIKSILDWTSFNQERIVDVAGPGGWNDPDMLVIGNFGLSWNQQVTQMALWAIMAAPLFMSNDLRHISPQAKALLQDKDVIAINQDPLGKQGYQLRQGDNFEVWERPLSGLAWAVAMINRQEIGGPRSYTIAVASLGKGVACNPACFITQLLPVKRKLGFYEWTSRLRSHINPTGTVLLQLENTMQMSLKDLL
Protocol: as §1, with “The initial rate was then measured by monitoring the increase in absorbance as a result of the release of 4-nitrophenol at 405 nm for up to five minutes.” left out
Fabrazyme (Acid α-galactosidase): 20 mM sodium citrate, 50 mM sodium phosphate, 1.0 mM tetrasodium EDTA, 0.25% v/v Triton X-100® and 0.25% w/v taurocholic acid buffer (pH 5.5).

[4] = target: α-glucosidase from Saccharomyces cerevisiae (GH13); assay: Ki determination, S. cerevisiae α-glucosidase; assay type: biochemical; details: pH 7.0, substrate pNP α-Glc, room temperature; read-out: Ki S. cer. (GH13) α-Glc
Protocol: as §1
S. cerevisiae α-Glucosidase: 50 mM sodium phosphate buffer (pH 7.0). Substrate: pNP α-Glc, Km = 0.75 mM.

[5] = target: T3, recombinant human lysosomal β-glucocerebrosidase (GCase, GH30) (Homo sapiens, UniProt P04062); assay: Ki determination, GCase (β-glucocerebrosidase); assay type: biochemical
T3 sequence (P04062 40-536): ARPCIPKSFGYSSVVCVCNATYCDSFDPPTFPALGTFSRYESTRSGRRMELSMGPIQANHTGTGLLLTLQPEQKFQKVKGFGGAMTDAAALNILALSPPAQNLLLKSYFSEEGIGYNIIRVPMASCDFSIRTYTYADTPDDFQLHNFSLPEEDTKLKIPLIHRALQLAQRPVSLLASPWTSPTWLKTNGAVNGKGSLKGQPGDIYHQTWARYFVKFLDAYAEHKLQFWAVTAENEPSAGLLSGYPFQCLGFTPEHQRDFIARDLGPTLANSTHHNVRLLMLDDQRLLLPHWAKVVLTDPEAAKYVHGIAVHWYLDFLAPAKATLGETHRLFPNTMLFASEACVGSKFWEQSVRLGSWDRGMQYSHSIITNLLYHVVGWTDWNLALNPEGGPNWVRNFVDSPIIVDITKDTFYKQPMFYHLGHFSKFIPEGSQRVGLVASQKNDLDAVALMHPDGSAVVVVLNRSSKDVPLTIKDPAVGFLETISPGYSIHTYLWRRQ
Protocol: as §1
GCase (β-glucocerebrosidase): 20 mM sodium citrate, 50 mM sodium phosphate, 1.0 mM tetrasodium EDTA, 0.25% v/v Triton X-100® and 0.25% w/v taurocholic acid buffer (pH 7). Substrate: 2,4-DNP β-Glc, Km = 2.7 mM.

[6] = pH 7, substrate 2,4-DNP β-Glc, room temperature, read-out: Ki GCase (GH30) β-Glc
[7] = values repeated in running text, read-out: Ki for GCase

Sequence of lac Z β-galactosidase from E. coli (GH2) (P00722 2-1024 limits assumed): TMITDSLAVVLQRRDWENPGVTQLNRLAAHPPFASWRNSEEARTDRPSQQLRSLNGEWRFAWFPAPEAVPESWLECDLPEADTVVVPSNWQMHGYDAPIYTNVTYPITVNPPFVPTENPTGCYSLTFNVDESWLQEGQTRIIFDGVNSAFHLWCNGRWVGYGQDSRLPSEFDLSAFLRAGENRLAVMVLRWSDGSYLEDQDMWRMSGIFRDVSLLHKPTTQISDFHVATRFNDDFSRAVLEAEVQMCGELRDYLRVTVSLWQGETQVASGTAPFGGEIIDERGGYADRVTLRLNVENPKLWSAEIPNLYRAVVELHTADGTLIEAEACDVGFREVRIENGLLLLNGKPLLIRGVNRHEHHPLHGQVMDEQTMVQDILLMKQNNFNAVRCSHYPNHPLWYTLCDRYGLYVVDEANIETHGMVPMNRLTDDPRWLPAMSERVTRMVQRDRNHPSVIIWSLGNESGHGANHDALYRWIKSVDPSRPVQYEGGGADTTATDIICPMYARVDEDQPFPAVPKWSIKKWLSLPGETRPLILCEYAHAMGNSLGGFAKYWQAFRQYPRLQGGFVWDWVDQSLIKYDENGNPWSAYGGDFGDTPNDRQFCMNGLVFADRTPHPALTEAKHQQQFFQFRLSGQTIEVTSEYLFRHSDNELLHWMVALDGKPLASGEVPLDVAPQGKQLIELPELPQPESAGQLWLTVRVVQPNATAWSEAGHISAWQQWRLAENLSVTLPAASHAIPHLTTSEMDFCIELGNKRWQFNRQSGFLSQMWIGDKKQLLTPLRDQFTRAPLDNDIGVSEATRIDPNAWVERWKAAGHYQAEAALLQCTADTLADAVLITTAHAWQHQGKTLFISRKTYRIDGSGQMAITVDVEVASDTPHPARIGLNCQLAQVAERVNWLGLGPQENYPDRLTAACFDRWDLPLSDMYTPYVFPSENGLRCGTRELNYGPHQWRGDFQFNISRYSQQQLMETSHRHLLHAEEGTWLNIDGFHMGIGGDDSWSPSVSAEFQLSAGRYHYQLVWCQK

Structure (SMILES)	Ki (GCase; read-out: Ki GCase inhibition, multivalent iminosugars)	Ki (GCase; read-out: Ki GCase)	Ki [1]	Ki [2]	Ki [3]	Ki [4]	Ki [5, 6]	Ki [5, 7]
OC[C@@H]1[C@@H](O)[C@H](O)[C@@H](O)CN1CCCCCCCCCn1cc(COCC(COCc2cn(CCCCCCCCCN3C[C@H](O)[C@@H](O)[C@H](O)[C@H]3CO)nn2)(COCc2cn(CCCCCCCCCN3C[C@H](O)[C@@H](O)[C@H](O)[C@H]3CO)nn2)COCc2cn(CCCCCCCCCN3C[C@H](O)[C@@H](O)[C@H](O)[C@H]3CO)nn2)nn1 [Compound 17]	0.055 µM							
CC[C@@H]1[C@H](O)[C@@H](O)[C@H](O)CN1CCCCCC(=O)OC [Compound 19]		57 µM						
CC[C@@H]1[C@H](O)[C@@H](O)[C@H](O)CN1CCCCCC(=O)NCCc1c[nH]cn1 [Compound 20]		4.1 µM						
N#CCCCCCOc1ccc(C(=O)OCCCCCCN2C[C@H](O)[C@@H](O)[C@H](O)[C@H]2CO)cc1 [Compound 45, N-(6-((4-((5-Cyanopentyl)oxy)benzoyl)oxy)hexyl)-1,5-dideoxy-1,5-imino-D-glucitol]			1.31 µM	> 1000 µM	> 1000 µM	23.7 µM	0.28 µM	
N#CCCCCCOc1ccc(C(=O)OCCCCCCN2C[C@@H](O)[C@H](O)[C@@H](O)C2)cc1 [Compound 46, N-(6-((4-((5-Cyanopentyl)oxy)benzoyl)oxy)hexyl)-1,5-dideoxy-1,5-imino-D-xylitol]			12.1 µM	> 1000 µM	> 1000 µM	> 1000 µM	0.62 µM	
[N-]=[N+]=NCCOCCOc1ccc(C(=O)OCCCCCCN2C[C@H](O)[C@@H](O)[C@H](O)[C@H]2CO)cc1 [Compound 47, N-(6-((4-(2-(2-Azidoethoxy)ethoxy)benzoyl)oxy)hexyl)-1,5-dideoxy-1,5-imino-D-glucitol]			1.7 µM	> 1000 µM	> 1000 µM	221 µM	0.09 µM	
[N-]=[N+]=NCCOCCOc1ccc(C(=O)OCCCCCCN2C[C@@H](O)[C@H](O)[C@@H](O)C2)cc1 [Compound 48, N-(6-((4-(2-(2-Azidoethoxy)ethoxy)benzoyl)oxy)hexyl)-1,5-dideoxy-1,5-imino-D-xylitol]			32.6 µM	> 1000 µM	> 1000 µM	> 1000 µM	1.4 µM	
O=C(OCCCCCCN1C[C@H](O)[C@@H](O)[C@H](O)[C@H]1CO)c1ccc(OCCOCCOC(C(F)(F)F)(C(F)(F)F)C(F)(F)F)cc1 [Compound 49, N-(6-((4-(2-(2-(Nonafluoro-tert-butyloxy)ethoxy)ethoxy)benzoyl)oxy)hexyl)-1,5-dideoxy-1,5-imino-D-glucitol]			3.6 µM	> 1000 µM	> 1000 µM	> 1000 µM	0.35 µM	
O=C(OCCCCCCN1C[C@@H](O)[C@H](O)[C@@H](O)C1)c1ccc(OCCOCCOC(C(F)(F)F)(C(F)(F)F)C(F)(F)F)cc1 [Compound 50, N-(6-((4-(2-(2-(Nonafluoro-tert-butyloxy)ethoxy)ethoxy)benzoyl)oxy)hexyl)-1,5-dideoxy-1,5-imino-D-xylitol]			23.7 µM	255 µM	> 1000 µM	> 1000 µM	0.4 µM	
C#CCOc1ccc(C(=O)OCCCCCCN2C[C@H](O)[C@@H](O)[C@H](O)[C@H]2CO)cc1 [Compound 51, N-(6-((4-(Propargyloxy)benzoyl)oxy)hexyl)-1,5-dideoxy-1,5-imino-D-glucitol]			0.0022 µM	> 1000 µM	> 1000 µM	4.9 µM	0.37 µM	
C#CCOc1ccc(C(=O)OCCCCCCN2C[C@@H](O)[C@H](O)[C@@H](O)C2)cc1 [Compound 52, N-(6-((4-(Propargyloxy)benzoyl)oxy)hexyl)-1,5-dideoxy-1,5-imino-D-xylitol]				> 1000 µM	> 1000 µM	267 µM	0.74 µM	
O=C(NCCc1ccc(C(=O)OCCCCCCN2C[C@H](O)[C@@H](O)[C@H](O)[C@H]2CO)cc1)OCc1ccccc1 [Compound 53, N-(6-((4-(2-(((Benzyloxy)carbonyl)amino)ethyl)benzoyl)oxy)hexyl)-1,5-dideoxy-1,5-imino-D-glucitol]			0.06 µM	424 µM	> 1000 µM	8.1 µM		0.022 µM
O=C(NCCc1ccc(C(=O)OCCCCCCN2C[C@@H](O)[C@H](O)[C@@H](O)C2)cc1)OCc1ccccc1 [Compound 54, N-(6-((4-(2-(((Benzyloxy)carbonyl)amino)ethyl)benzoyl)oxy)hexyl)-1,5-dideoxy-1,5-imino-D-xylitol]			0.58 µM	> 1000 µM	> 1000 µM	> 1000 µM	0.31 µM	
CN(C)c1cccc2c(S(=O)(=O)NCCc3ccc(C(=O)OCCCCCCN4C[C@H](O)[C@@H](O)[C@H](O)[C@H]4CO)cc3)cccc12 [Compound 55, N-(6-((4-(2-(Dansylamino)ethyl)benzoyl)oxy)hexyl)-1,5-dideoxy-1,5-imino-D-glucitol]			0.06 µM	89 µM	> 1000 µM	8.7 µM		0.018 µM
CN(C)c1cccc2c(S(=O)(=O)NCCc3ccc(C(=O)OCCCCCCN4C[C@@H](O)[C@H](O)[C@@H](O)C4)cc3)cccc12 [Compound 56, N-(6-((4-(2-(Dansylamino)ethyl)benzoyl)oxy)hexyl)-1,5-dideoxy-1,5-imino-D-xylitol]			0.76 µM	198 µM	> 1000 µM	> 1000 µM		
